Values of other authors as cited in patent US20110251195A1, “ADRB2 GENE PO[…] INTRAOCULAR PRESSURE RESPONSE TO TOPICAL BETA-BLOCKERS” (Marshfield Clinic, priority 2008, published 2011).

Test system: ADRB2 gene product (Gln27 / Glu27)
Settings: Glu27 versus Gln27 ADRB2 variant

For `CC(C)NCC(O)c1ccc(O)c(O)c1` (stereo not shown) [isoprenaline], the “fold greater isoprenaline concentration necessary to down-regulate Glu27 to the same extent as Gln27” value is listed as 60 fold.
